Each structure is given as a SMILES string.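 Exposure lasted 48 hours, with cells grown in 96-well plates and compounds tested at five concentrations. At the GI50, growth is halved.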 Activity calls are given as the source filed them. Cut-off read from the data, not from the text of the source: active = GI50 up to about 1.1 µM and inactive = higher. Some results are limits rather than exact numbers.

Consider 12 compounds from ChEMBL document CHEMBL1201862, “PubChem BioAssay data set” (2004).

Holding throughout (experiment): inhibition of tumour cell growth, NCI panel, 48 h
Assay [1] has as its system 786-0.
In assay [2] the test system is CAKI-1.
Assay [3] has as its system CCRF-CEM.
The test system of assay [4] is HCC 2998.
Assay [5] deals with HCT-116.
Assay [6] concerns HT-29.
Assay [7] relates to KM12.
For assay [8], the system named is M14.
Assay [9] relates to NCI-H460.
Assay [10] concerns OVCAR-4.
Assay [11] relates to OVCAR-5.
Assay [12] relates to RXF 393.
Assay [13] has as its system SF-268.
Assay [14] deals with SF-295.
Assay [15] has as its system SK-MEL-28.
In assay [16] the test system is SNB-75.
The test system of assay [17] is SR.
Assay [18] has as its system U-251.

As for `O=C1c2ccccc2C(=O)c2c1ccc(O)c2O` [ATHRAQUINONES A], the GI50 in assay [1] is 63 µM (inactive); in assay [2] it was 39.5 µM (inactive); in [3], 36.6 µM (inactive); in assay [4], 33.1 µM (inactive); in [5], 32.4 µM (inactive); in assay [6] it was 36 µM (inactive). Moreover, the GI50 is 57.8 µM (inactive) in [7]; 77.6 µM (inactive) in assay [8]; 38.9 µM (inactive) in assay [9]; 32.1 µM (inactive) in assay [10]; > 100 µM (inactive) in assay [11]; 40.8 µM (inactive) in assay [12]. In addition, the GI50 in assay [13] was 32 µM (inactive); in [14] it was 57.3 µM (inactive); in [15], > 100 µM (inactive); in assay [16], 28.2 µM (inactive); in assay [17] it was 34.8 µM (inactive); in assay [18], 38.6 µM (inactive).

As for `Nc1nc(Cl)cc(NCCCCCCCCCCNc2cc(Cl)nc(N)n2)n1`, the GI50 in [1] is 21.5 µM (inactive); in assay [2], 25.6 µM (inactive); in assay [3], 18.9 µM (inactive); in [4], 22.8 µM (inactive); in assay [5] it was 0.196 µM (active); in assay [6], 8.93 µM (inactive). Further, the GI50 in assay [7] was 10.9 µM (inactive); in [8], 6.44 µM (inactive); in assay [9], 5.96 µM (inactive); in assay [10], 8.13 µM (inactive); in assay [11], 0.043 µM (active); in [12], 13.9 µM (inactive). Moreover, the GI50 is 3.26 µM (inactive) in assay [13]; 0.301 µM (active) in [14]; 22.6 µM (inactive) in [16]; 2.62 µM (inactive) in [17]; 4.21 µM (inactive) in [18].

Consider `O=C(N[C@@H]1C=CCC[C@@H]1c1ccccc1)OCc1ccccc1`, for which the GI50 in [1] was 18.7 µM (inactive); in assay [2], 12.2 µM (inactive); in assay [3] it was 16.4 µM (inactive); in assay [4] it was 20.6 µM (inactive); in [5] it was 18.1 µM (inactive); in assay [6], 23.7 µM (inactive). Further, the GI50 in [7] was 17.5 µM (inactive); in assay [8], 17.9 µM (inactive); in assay [9], 17.9 µM (inactive); in [10], 18.6 µM (inactive); in [11], 17.8 µM (inactive); in [12], 20.3 µM (inactive). Besides, the GI50 in assay [13] is 25 µM (inactive); in [14], 20.4 µM (inactive); in assay [15], 21.9 µM (inactive); in assay [16], 19.6 µM (inactive); in [17], 15.1 µM (inactive); in assay [18], 17.5 µM (inactive).

Turning to `COC(=O)C1(C(=O)OC)N=C(C)OC1c1ccccc1O` (stereo unspecified), the GI50 in assay [1], in [2], in [3], in assay [4], in [5] and in assay [7] was > 100 µM (inactive) in each case. The GI50 in assay [8], in assay [9], in assay [10], in [11], in assay [12] and in assay [14] was > 100 µM (inactive) throughout. Further, the GI50 in assay [15], in [16], in assay [17] and in [18] was > 100 µM (inactive) in each case.

For `O=C1C2c3[nH]c4ccccc4c3C3CCCC3C2C(=O)N1c1ccccc1` (stereo unspecified), the GI50 in [1], in assay [3], in assay [4], in [6], in assay [7] and in assay [8] was > 100 µM (inactive) throughout. The GI50 in assay [9] was 91.8 µM (inactive); in assay [10], 17.1 µM (inactive); in assay [12], > 100 µM (inactive); in assay [13], > 100 µM (inactive); in assay [14] it was > 100 µM (inactive); in assay [15], > 100 µM (inactive). In addition, the figures for the GI50 in assay [16], in [17] and in [18] were 40.6 µM (inactive), > 100 µM (inactive) and > 100 µM (inactive), respectively.

As for `CCOC(=O)C(=O)C=P(c1ccccc1)(c1ccccc1)c1ccccc1`, the GI50 in [1], in [2], in assay [3], in [4], in [5] and in assay [6] was > 100 µM (inactive) throughout. Moreover, the GI50 in assay [7] is > 100 µM (inactive); in assay [8], > 100 µM (inactive); in [9], 34.6 µM (inactive); in [10] it was > 100 µM (inactive); in assay [11], > 100 µM (inactive); in assay [12], > 100 µM (inactive). Besides, the GI50 in assay [13], in [14], in assay [15], in assay [16], in assay [17] and in [18] was > 100 µM (inactive) in each case.

As to `COC[n+]1cc2cc(OC)c(OC)cc2c2ccc3cc(OC)c(OC)cc3c21`, the GI50 is > 100 µM (inactive) in assay [1]; > 100 µM (inactive) in [2]; 98.2 µM (inactive) in assay [3]; > 100 µM (inactive) in [4]; > 100 µM (inactive) in assay [5]; > 100 µM (inactive) in [6]. Moreover, the GI50 in assay [7], in assay [8], in assay [9], in assay [10], in [11] and in [12] was > 100 µM (inactive) each time. Besides, the GI50 is > 100 µM (inactive) in assay [13]; > 100 µM (inactive) in assay [14]; > 100 µM (inactive) in [15]; > 100 µM (inactive) in assay [16]; > 10 µM (inactive) in assay [17]; > 100 µM (inactive) in assay [18].

Take `Cc1c(C(=O)/C=C/c2cccc3ccccc23)[n+]([O-])c2ccccc2[n+]1[O-]`: the GI50 in assay [1] is 12.6 µM (inactive); in assay [2], 7.85 µM (inactive); in assay [3], 3.2 µM (inactive); in assay [4], 16.8 µM (inactive); in assay [5], 6.12 µM (inactive); in assay [6], 12.3 µM (inactive). For the same compound, the GI50 is 14 µM (inactive) in [7]; 13.7 µM (inactive) in assay [8]; 15.3 µM (inactive) in assay [9]; 4.47 µM (inactive) in [10]; 15.2 µM (inactive) in assay [11]; 10.1 µM (inactive) in [12]. The GI50 in [13] is 14.7 µM (inactive); in [14], 16.1 µM (inactive); in [15], 13 µM (inactive); in assay [16], 13 µM (inactive); in [17], 12.7 µM (inactive); in assay [18] it was 14.8 µM (inactive).

For `O=C(CCc1ccccc1)On1nnc2ccccc2c1=O`, the GI50 is > 100 µM (inactive) in assay [1]; 30.8 µM (inactive) in assay [2]; > 100 µM (inactive) in [3]; > 100 µM (inactive) in [4]; > 100 µM (inactive) in [5]; > 100 µM (inactive) in assay [6]. The GI50 in assay [7], in [8], in [9], in assay [10], in assay [11] and in assay [12] was > 100 µM (inactive) throughout. The GI50 in [13], in assay [14], in assay [16], in [17] and in assay [18] was > 100 µM (inactive) each time.

Regarding `C[C@@]1(Cc2ccccc2)C(=O)N2[C@@H](CO)C(c3ccccc3)O[C@]2(C)c2ccccc21` (stereo partly specified), the GI50 in assay [1] is 52.7 µM (inactive); in assay [2] it was 26.2 µM (inactive); in [3] it was 81.1 µM (inactive); in assay [5], > 100 µM (inactive); in assay [7], > 100 µM (inactive); in assay [8] it was > 100 µM (inactive). The GI50 in assay [10] was > 100 µM (inactive); in assay [11] it was > 100 µM (inactive); in assay [12], > 100 µM (inactive); in assay [13], > 100 µM (inactive); in [14] it was 72.4 µM (inactive); in [15], > 100 µM (inactive). For the same compound, the GI50 is 32 µM (inactive) in assay [16], > 100 µM (inactive) in [17] and > 100 µM (inactive) in assay [18].

For the compound `COc1cc(/C=C(\NC(=O)c2ccccc2)c2nc3cncnc3[nH]2)cc(OC)c1OC`, the GI50 in assay [1], in assay [2], in assay [3], in assay [4], in [6] and in assay [7] was > 100 µM (inactive) throughout. For the same compound, the GI50 in [8], in [10], in [11], in [12], in assay [13] and in assay [14] was > 100 µM (inactive) each time. The GI50 in assay [15], in assay [17] and in assay [18] was > 100 µM (inactive) throughout.

For `NCCNC(=O)c1cccc2cc3ccccc3nc12`, the GI50 is 7.6 µM (inactive) in [1]; 3.15 µM (inactive) in assay [2]; 2.65 µM (inactive) in assay [4]; 1.11 µM (active) in assay [5]; 1.87 µM (inactive) in assay [6]; 4.03 µM (inactive) in assay [7]. For the same compound, the GI50 in assay [8] was 3.53 µM (inactive); in assay [10], 3.75 µM (inactive); in [11], 3.74 µM (inactive); in assay [12] it was 2.31 µM (inactive); in assay [13] it was 1.61 µM (inactive); in assay [14], 2.94 µM (inactive). Besides, the GI50 in assay [15] is 3 µM (inactive); in assay [16], 5.26 µM (inactive); in [17] it was 0.439 µM (active); in assay [18] it was 2.11 µM (inactive).
